In EP0533056A2, “Substituted aminopropanes, process for their preparation and their use as antimycotic agents” (HOECHST AKTIENGESELLSCHAFT, priority 1991, dated 1993):

What was measured:
[1] = tested on: Phospholipase von Candida albicans; test: Inhibition of released exoenzymes (phospholipase) of Candida albicans blastoconidia, egg-yolk agar plate, turbidity halo; assay type: cell-based; details: Candida albicans Stamm 200/175, in vitro
Protocol: Zur Feststellung der Enzymhemmung wurde eine Suspension von Candida albicans Blastokonidien (Stamm 200/175), wobei die Keimdichte photometrisch auf eine Extinktion von 0,5 (500 nm) eingestellt war, mit Präparatelösung bzw. zur Kontrolle mit Lösungsmittellösung vermischt und zwar • a) 100 µl Präparatelösung (Suspension) • + 900 µl Keimsuspension • b) 100 µl Lösungsmittel • + 900 µl Keimsuspension Jeweils 5 µl der 30 min bei 21 ° C inkubierten Blastokonidiensuspension wurden auf eine Agarplatte (Sabourand Agar mit Zusatz von 8 % Eigelb, 1 m NaCI, 5 mM CaC12) aufgetropft.
Die so beimpfte Platte wurde 3 Tage bei 37 ° C bebrütet.
Die Auswertung erfolgte derart, daß • 1. der Durchmesser (mm) der Candida albicans-Kolonie (behandelt und unbehandelt) sowie • 2. der Gasamtdurchmesser von Kolonie und Trübungshof, welcher durch Exoenzyme verursacht wurde (behandelt und unbehandelt), bestimmt wurde.
Aus der Bestimmung des Quotienten von Präparate- und Kontrollgruppe ergab sich ein Wert, der als Maß für die Enzymaktivität anzusehen war.

[2] = tested on: Trichophyton mentagrophytes; test: Percent killing of Trichophyton mentagrophytes in vitro; assay type: cell-based; details: nach 14 h in aqua dest., read-out: %-Abtötung von Trichophyton mentagrophytes
Text: Die pilzabtötende, antimykotische Wirksamkeit der Verbindungen wurde an einigen Beispielen (s. Tabelle 3) anhand der prozentualen Abtötung von Trichophyton mentagrophytes in vitro verifiziert (Standardpräparat Rilopirox als Vergleichssubstanz).

[3] = tested on: Phospholipase aus Leberzellen; details: in-vitro-Test, literature (Pappu A.S. et al., Biochem. Pharmacol. 34, 521-24, 1985); cited from earlier work

SMILES	% Hemmung der Phospholipase ([1]; Konzentration 50 μm/ml) [%]	% Hemmung der Phospholipase ([1]; Konzentration 100 μm/ml) [%]	% Hemmung der Phospholipase ([1]; Konzentration 10 μm/ml) [%]	% Hemmung der Phospholipase ([1]; Konzentration 5 μm/ml) [%]	killing at 40 µg/mL [2] [%]	killing at 80 µg/mL [2] [%]	% Hemmung der Phospholipase ([1]; Konzentration 1 μm/ml) [%]	Hemmwirkung gegenüber Phospholipase aus Leberzellen [3]
CC(C)(C)NCC(O)(COc1ccc(OCc2ccccc2)cc1)C(C)(C)C (centres unmarked) [1.5]	100	100						
CC(C)NCC(O)(COc1ccc(Cl)cc1Cl)C(C)(C)C (centres unmarked) [1.7, 2-t-Butyl-1-(2,4-dichlorphenoxy)-3-isopropyl-amino-2-propanol]		100	20					
CCCCNCC(O)(COc1ccc(C(C)(C)C)cc1)C(C)(C)C (centres unmarked) [1.11]		100						
CCCCNCC(O)(COc1ccc(C(C)(C)C)cc1)c1ccc(-c2ccccc2)cc1 (centres unmarked) [1.15]	100	100	100	100				
CCCCCCCCCCCCNCC(O)(COc1ccc(C(C)(C)C)cc1)c1ccc(-c2ccccc2)cc1 (centres unmarked) [1.17]	100	100	100	100	97.8	100		
CCCCCCCOc1ccc(OCC(O)(CNCCCC)C(C)(C)C)cc1 (centres unmarked) [1.18]	100	100	100	100				
CCCCCCCOc1ccc(OCC(O)(CNCc2ccccc2)C(C)(C)C)cc1 (centres unmarked) [1.19, 3-N-Benzylamino-2-t-butyl-1-(4-heptyloxy-phenyl-oxy)-2-propanol]	100	100	100	100				
CCCCCCCOc1ccc(OCC(O)(CNCc2ccc(OC)c(OC)c2)C(C)(C)C)cc1 (centres unmarked) [1.21]	100	100	100					
CCCCCCCOc1ccc(OCC(O)(CNCCC(c2ccccc2)c2ccccc2)C(C)(C)C)cc1 (centres unmarked) [1.22]	100	100	10					
CCCCCCCCCCCCNCC(O)(COc1ccc(OCCCCCCC)cc1)C(C)(C)C (centres unmarked) [1.23]	100	100	100	100				
CCCCCCCOc1ccc(OCC(O)(CNC(C)C)C(C)(C)C)cc1 (centres unmarked) [1.24]	100	100	100	100				
CC1(C)CC(NCC(O)(COc2ccc(Oc3ccccc3)cc2)C(C)(C)C)CC(C)(C)N1 (centres unmarked) [1.31]	100	100	100	7.7				
CCCCCCCCCCCCNCC(O)(COc1ccc(Oc2ccccc2)cc1)C(C)(C)C (centres unmarked) [1.34]	100	100	100	33.3			6.3	
CC(C)(C)CC(C)(C)c1ccc(OCC(O)(CNCc2ccc(Cl)cc2Cl)C(C)(C)C)cc1 (centres unmarked) [1.48]	100	100	100	100			14.3	
CCCCCCCCCCCCNCC(O)(COc1ccc(OCCCCCCC)cc1)c1ccccc1 (centres unmarked) [1.53]	100	100	100	100				
CC(C)NCC(O)COc1cccc2ccccc12 (centres unmarked) [Propranolol, reference compound]		30						wirksamste Substanz
Cc1cc(COc2ccc(Oc3ccc(Cl)cc3)cc2)n(O)c(=O)c1 [Rilopirox, reference compound]					100	100		
